From paper PMC12693701, “Glucosinolate-Derived Metabolites from Barbarea vulgaris (Brassicaceae): Evaluation of Antimicrobial, Antioxidant, and Anti-Inflammatory Potentials” (Molecules, 2025)

System: tested fungal strains
Assay: Microdilution MIC, summary over tested fungal strains
Assay type: cell-based
Details: tested concentrations 5 to 0.039 mg/mL
Description: The antimicrobial activity was evaluated against 15 microorganisms. This included 11 bacterial strains: four standard strains (Staphylococcus aureus ATCC 25923, Bacillus subtilis ATCC 6633, Bacillus pumilus NCTC 8241, and Escherichia coli ATCC 25922) and six clinical or environmental isolates (Staphylococcus aureus, Escherichia coli, Bacillus cereus, Proteus mirabilis, Salmonella enterica, and Klebsiella pneumoniae). One probiotic strain, Bifidobacterium animalis subsp. lactis was tested. In addition, four fungal strains, Candida albicans ATCC 10231, Trichoderma viride ATCC 13233, Aspergillus flavus ATCC 9170, and Fusarium solani ATCC 11712 were tested. The bacterial strains were kept in glycerol stock at −80 °C and the fungal strains in paraffin oil stock at 4 °C. […]
Antimicrobial activity was evaluated by determining the minimum inhibitory concentration (MIC) and minimum microbicidal concentration (MMC) using the microdilution plate method with resazurin as an indicator [28]. […]
Each test also included growth control and sterility control. […] For molds, MIC values of the tested compound were determined as the lowest concentration that inhibited visible mycelia growth. MMC was determined by inoculation of the nutrient agar medium by plating […] of samples from wells, where no indicator color change was recorded. […]

O=C1NCC(c2ccccc2)S1 (stereo not shown) [Compound 6, 5-phenyl-1,3-thiazolidin-2-one]
antifungal activity (in words): all fungal strains were resistant
